Measured values as given in US20110124609A1, “Method of Preventing Type I Diabetes” (Wisconsin Alumni Research Foundation, priority 2009, published 2011).
Entries after “also recorded” stand apart in the source; their conditions may differ.

Tests used:
[1] = 2AMD study: body weight of NOD mice; format: in vivo, mouse; conditions: 200 pg and 300 pg 2AMD per day in diet, over 200 days (FIG. 3)
Text: Diet. Breeding pairs were fed LabDiet™ Mouse Diet 5010 ad libitum (PMI Nutrition International, St. Louis, Mo.). Experimental mice were fed LabDiet™ Mouse Diet 5K52 meal form (PMI Nutrition International, St. Louis, Mo.). […] Evaluation of Diabetic Status. […] Whole blood was centrifuged to obtain serum.

[2] = 2AMD study: serum calcium analysis (atomic absorption); format: in vivo, mouse; conditions: 200 pg and 300 pg 2AMD per day in diet; NOD mice; over 30 weeks (FIG. 2)
Text: Diet. Breeding pairs were fed LabDiet™ Mouse Diet 5010 ad libitum (PMI Nutrition International, St. Louis, Mo.). Experimental mice were fed LabDiet™ Mouse Diet 5K52 meal form (PMI Nutrition International, St. Louis, Mo.). […] Serum Calcium Analysis. Blood was collected from maxillary cheek of each mouse weekly from 8 weeks to 200 days of age.

NOD mice [3] = assay: 2AMD Type 1 Diabetes Prevention Study: diabetes incidence in NOD mice; format: in vivo, mouse; conditions: female NOD mice
Experimental: Diet. Breeding pairs were fed LabDiet™ Mouse Diet 5010 ad libitum (PMI Nutrition International, St. Louis, Mo.). Experimental mice were fed LabDiet™ Mouse Diet 5K52 meal form (PMI Nutrition International, St. Louis, Mo.). […] At eight weeks of age, mice were placed on 1 of 4 experimental diets: 1) chow, 2) 5010+50 ng 1,25(OH)2D3, or 3) 5010+200 pg and 4) 5010+300 pg 2AMD. In diets/treatments containing 1,25(OH)2D3 or 2AMD, the hormone was added to 1% Wesson® oil and mixed into the diet.
(§1) Evaluation of Diabetic Status. […] Whole blood was centrifuged to obtain serum.

NOD mice [4] = assay: 2MD Type 1 Diabetes Prevention Study: diabetes incidence in NOD mice; format: in vivo, mouse; conditions: for Incidence of Type 1 Diabetes: female NOD mice
Text: as §1

NOD mouse = conditions: of 1,25-(OH)2D3, Zella et al., 2003; cited from earlier work
[5] = background, 19-nor-analogs; cited from earlier work
cellular differentiation = conditions: background, 19-nor-analogs; cited from earlier work
[6] = 2MD study: serum calcium analysis (atomic absorption); conditions: for serum calcium: NOD mice; for Serum Calcium Levels: mean, n = 12, in mg/dL (unit assumed)
Experimental: Diet. […] Female pups were weaned at three weeks and placed immediately on a purified diet (Suda et al., 1974, J. Nutr. 100: 1049-1052). At eight weeks of age, mice were then provided 1 of 4 experimental diets: diet 11 only or diet 11+50 ng 1,25(OH)2D3, diet 11 plus 400 ng 2 MP or diet 11+500 pg 2MD. All purified diets were supplemented with vegetable oil containing fat soluble vitamins A, E, D and K (Suda et al., 1970, J. Nutr. 100: 1049-1052 [diet 11]). In diets containing 1,25(OH)2D3, 2 MP or 2MD, the compounds were added to 1% Wesson® oil and mixed into the purified diet. Diets were fed in agar form (Hayes et al., 1987, J. Nutr. 117:857-865) at 3.5 g food/mouse/day and were replaced three times per week.
Serum Calcium Analysis. Blood was collected from maxillary cheek of each mouse at 6, 8, 9, 14.3, 15.3 and 28.6 weeks of age. Serum was separated by centrifugation and diluted 1:40 in a 0.1% LaCl2 solution. Calcium concentration was determined by atomic absorption spectrometry (Spectrometer 3110®, Perkin Elmer, Norwalk, Conn.).

[7] = 2MD study: body weight of NOD mice; conditions: for Weights: mean, n = 12, in g (unit assumed)
Experimental: Diet. […] At eight weeks of age, mice were then provided 1 of 4 experimental diets: diet 11 only or diet 11+50 ng 1,25(OH)2D3, diet 11 plus 400 ng 2 MP or diet 11+500 pg 2MD. All purified diets were supplemented with vegetable oil containing fat soluble vitamins A, E, D and K (Suda et al., 1970, J. Nutr. 100: 1049-1052 [diet 11]). In diets containing 1,25(OH)2D3, 2 MP or 2MD, the compounds were added to 1% Wesson® oil and mixed into the purified diet. Diets were fed in agar form (Hayes et al., 1987, J. Nutr. 117:857-865) at 3.5 g food/mouse/day and were replaced three times per week.
Evaluation of Diabetic Status. All experimental mice were weighed weekly and urinalysis was performed weekly starting at 10 weeks of age—Diastix® (Bayer, Elkhart, Ind.) were used to determine glucose levels. If a Diastix® reading was above 1000 mg/dl, the mice were bled from maxillary cheek following a four-hour fast. Whole blood was centrifuged to obtain serum. Concentration of glucose in serum was measured using a enzymatic-colorimetric assay (Glucose Liquicolor®, Stanbio Laboratory, Boerne, Tex.) followed by spectrophotometric analysis. Animals that had two fasting glucose analysis above 300 mg/dl were diagnosed as diabetic and sacrificed via CO2 asphyxiation.

[8] = Group 8, 0.5 ng 2MD, age 6 weeks
[9] = Group 8, 0.5 ng 2MD, age 8 weeks
[10] = Group 8, 0.5 ng 2MD, age 9 weeks
[11] = Group 8, 0.5 ng 2MD, age 14.3 weeks
[12] = Group 8, 0.5 ng 2MD, age 15.3 weeks
[13] = Group 8, 0.5 ng 2MD, age 28.6 weeks
[14] = Group 10, 400 ng 2MP, age 6 weeks
[15] = Group 10, 400 ng 2MP, age 8 weeks
[16] = Group 10, 400 ng 2MP, age 9 weeks
[17] = Group 10, 400 ng 2MP, age 14.3 weeks
[18] = Group 10, 400 ng 2MP, age 15.3 weeks
[19] = Group 10, 400 ng 2MP, age 28.6 weeks

2α-methyl-19-nor-20(S)-1α,25-dihydroxyvitamin D3 [2AMD]
body weight [1]: no statistically significant change in body weight; also recorded: not altered
serum calcium / hypercalcemia [2]: no statistically significant increase in serum calcium; also recorded: without hypercalcemia
diabetes incidence at 200 days (FIG. 1) (NOD mice [3]; 200 pg and 300 pg 2AMD daily in diet, versus no treatment): statistically significant reduced incidence of diabetes
Type 1 diabetes disease incidence (NOD mice [3]; 200 pg and 300 pg 2AMD per day in 5010 diet, from 8 weeks to 200 days of age): 8%

C=C1/C(=C\C=C2/CCC[C@]3(C)[C@@H]([C@H](C)CCCC(C)(C)O)CC[C@@H]23)C[C@@H](O)C[C@@H]1O [1,25(OH)2D3, 1α,25-dihydroxy-vitamin D3]
Incidence of Type 1 Diabetes (NOD mice [4]; 50 ng per day in diet 11, 200 days, n = 24): 4.2%
prevention of diabetes (NOD mice [4]; 50 ng/day 1,25(OH)2D3 in diet 11, NOD mice): prevented diabetes
protection against T1DM (NOD mice [3]; 50 ng 1,25(OH)2D3 per day in 5010 diet): completely protected
prevention of Type 1 diabetes (NOD mouse): completely prevent Type 1 diabetes

C[C@H](CCCC(C)(C)O)[C@H]1CC[C@H]2/C(=C/C=C3C[C@@H](O)C[C@H](O)C3)CCC[C@]12C [1α,25-dihydroxy-19-nor-vitamin D3]
calcium mobilizing activity [5]: very low calcium mobilizing activity
potency for inducing cellular differentiation (cellular differentiation): high potency

C=C1[C@H](O)CC(=C/C=C2\CCC[C@@]3(C)C2CCC3[C@@H](C)CCCC(C)(C)O)C[C@H]1O (stereo partly drawn) [2MD, 2-methylene-19-nor-20(S)-1,25-dihydroxyvitamin D3]
Incidence of Type 1 Diabetes (NOD mice [4]; 0.5 ng per day in diet 11, 200 days, n = 12): 0.0%
prevention of diabetes / diabetes incidence (FIG. 4) (NOD mice [4]; 0.5 ng/day 2MD in diet 11, NOD mice, 200 days): statistically significant reduced incidence of diabetes; also recorded: prevented diabetes
serum calcium ([6]; 0.5 ng 2MD per day in diet 11, over 30 weeks (FIG. 6)): no statistically significant increase in serum calcium; also recorded: moderate elevation of calcium
Serum Calcium Levels [6, 8]: 11.42
Serum Calcium Levels [6, 9]: 11.45
Serum Calcium Levels [6, 10]: 11.55
Serum Calcium Levels [6, 11]: 11.52
Serum Calcium Levels [6, 12]: 11.33
Serum Calcium Levels [6, 13]: 11.37
body weight (FIG. 5) ([7]; 0.5 ng 2MD per day in diet 11, NOD mice, over 200 days): no statistically significant change in body weight
Weights ([7]; Group 8, 0.5 ng 2MD, age 3 weeks): 13.33
Weights [7, 8]: 21.87
Weights [7, 9]: 23.78
Weights [7, 10]: 24.94
Weights [7, 11]: 27.85
Weights [7, 12]: 27.82
Weights [7, 13]: 29.51

C=C1C(O)CC(=CC=C2CCCC3(C)C2CCC3C(C)C)CC1O (stereo not drawn) [2MP, 1α-hydroxy-2-methylene-19-nor-homopregnacalciferol, reference compound]
protection against diabetes (NOD mice [4]; 400 ng 2 MP per day in diet 11, NOD mice): no protection against diabetes
Incidence of Type 1 Diabetes (NOD mice [4]; 400 ng per day in diet 11, 200 days, n = 12): 33.0%
serum calcium ([6]; 400 ng 2 MP per day in diet 11): moderate elevation of calcium
Serum Calcium Levels [6, 14]: 11.57
Serum Calcium Levels [6, 15]: 11.57
Serum Calcium Levels [6, 16]: 11.55
Serum Calcium Levels [6, 17]: 11.62
Serum Calcium Levels [6, 18]: 11.77
Serum Calcium Levels [6, 19]: 11.66
Weights ([7]; Group 10, 400 ng 2MP, age 3 weeks): 13.60
Weights [7, 14]: 22.03
Weights [7, 15]: 23.74
Weights [7, 16]: 24.63
Weights [7, 17]: 26.30
Weights [7, 18]: 26.81
Weights [7, 19]: 27.64
